Results taken from patent publication US20230038623A1, “NOVEL SKIN CARE COMPOSITION” (BEIERSDORF AG, priority 2019, published 2023).

Legend:
C. acnes strain K8 = test: Evaluation of the minimum inhibitory concentration (MIC) of cosmetic excipients; type: cell-based, Cutibacterium acnes; details: MIC (% w/vol) at which compound starts interfering with growth, anaerobic, 3 days, 37° C., scored by turbidity
Experimental: (§1) In microbiology, the MIC is the lowest concentration of a chemical which prevents visible growth of bacterium. The resulted MIC value depends both on the microorganism and the test compound. The MIC is determined by preparing concentrations series of the test compound in vitro, incubating the solutions with the separate batches of cultured bacteria, and measuring the results using agar dilution or broth microdilution. For the experiments with C. acnes strains C3 and K8, media comprising yeast extract soy peptone and dextrose were used. The MIC is determined by turbidity.
(§2) A total of 125 cosmetic excipients were tested for their compatibility with C. acnes strains C3 and K8. Hydrophilic compounds were tested in a 96-well plate liquid broth format, poorly soluble compounds were pre-dissolved in DMSO before dilution in liquid broth and hydrophobic or solid compounds were tested in an agar well diffusion test assay. The different dilutions of the test excipients in media were prepared in Falcon tubes and then distributed in a deep well plate using a multistepper. Each well received 1.2 ml and was subsequently inoculated with 120 μl of C. acnes bacteria suspension (strain C3 and K8). From the deep well plate 200 μl were transferred in each well of a clear 96 well replicate plate. The leftover was discarded. The plates were then incubated anaerobically for 3 days at 37° C. Following incubation, the test plates were visually examined and wells were scored for growth or complete growth inhibition to define the minimum inhibitory concentration.
(§3) These excipients are listed in the below table with their compatibility values for C. acnes strains C3 and K8. The compatibility values represent the MIC value of the listed ingredients with the tested C. acnes strains. At this concentration [% w/vol] the tested compound starts interfering with the growth of the tested strains. The compounds can be used in formulations at concentrations below this concentration.

C. acnes strain C3 = test: as above; type: cell-based, Cutibacterium acnes; details: MIC (% w/vol) at which compound starts interfering with growth, anaerobic, 3 days, 37° C., scored by turbidity
Experimental: as §1, §2, §3

Molecule	COMPATABILITY VALUE K8 [%] (C. acnes strain K8)	COMPATABILITY VALUE C3 [%] (C. acnes strain C3)
CCCCCCC(O)CO (centres unmarked) [caprylyl glycol]	0.18%	0.18%
CC(CO)CO [methylpropanediol]	4.00%	4.00%
ethylhexyl cocoate	10.00%	10.00%
tocopherol	1.50%	1.50%
